According to patent US20240269139A1, “COMPOUNDS FOR TARGETED PROTEIN DEGRADATION OF KINASES” (DANA-FARBER CANCER INSTITUTE, INC., priority 2020, published 2024):
Like-named read-outs stand apart in the source and are kept apart here.

Assays:
Assay type in all cases: cell-based
[1] = molecular target: protein kinases (human kinome) (Homo sapiens, UniProt P11802)
[2] = molecular target: T1, protein kinases (human kinome) (Homo sapiens, UniProt Q9NYY8); conditions: direction down
T1 sequence (Q9NYY8 1-710): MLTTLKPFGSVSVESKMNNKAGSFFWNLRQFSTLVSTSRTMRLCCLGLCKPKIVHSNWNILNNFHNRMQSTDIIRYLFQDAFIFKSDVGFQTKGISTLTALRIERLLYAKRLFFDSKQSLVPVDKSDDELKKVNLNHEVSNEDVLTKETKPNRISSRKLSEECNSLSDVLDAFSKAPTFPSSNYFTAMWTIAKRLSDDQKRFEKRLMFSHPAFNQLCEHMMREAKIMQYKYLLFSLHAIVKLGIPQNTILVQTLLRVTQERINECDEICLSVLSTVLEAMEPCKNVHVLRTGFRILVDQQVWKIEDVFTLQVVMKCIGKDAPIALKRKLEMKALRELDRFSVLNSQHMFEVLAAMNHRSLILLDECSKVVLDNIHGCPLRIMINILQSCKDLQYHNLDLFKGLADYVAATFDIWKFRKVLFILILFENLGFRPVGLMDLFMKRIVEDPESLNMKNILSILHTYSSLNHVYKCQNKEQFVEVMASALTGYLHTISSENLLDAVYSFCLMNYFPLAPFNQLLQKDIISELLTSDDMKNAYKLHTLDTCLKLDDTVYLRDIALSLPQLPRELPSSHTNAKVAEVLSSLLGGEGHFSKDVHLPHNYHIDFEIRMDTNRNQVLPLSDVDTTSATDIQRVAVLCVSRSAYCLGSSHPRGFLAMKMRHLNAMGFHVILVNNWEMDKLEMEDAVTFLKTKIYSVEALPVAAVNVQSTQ

[3] = molecular target: protein kinases (human kinome) (Homo sapiens, UniProt P53671); conditions: for logFC LIMK2: LIMK2 (P53671), down; for logFC of LIMK2: LIMK2 P53671
[4] = molecular target: T2, protein kinases (human kinome) (Homo sapiens, UniProt O14976)
T2 sequence (O14976 1-1311): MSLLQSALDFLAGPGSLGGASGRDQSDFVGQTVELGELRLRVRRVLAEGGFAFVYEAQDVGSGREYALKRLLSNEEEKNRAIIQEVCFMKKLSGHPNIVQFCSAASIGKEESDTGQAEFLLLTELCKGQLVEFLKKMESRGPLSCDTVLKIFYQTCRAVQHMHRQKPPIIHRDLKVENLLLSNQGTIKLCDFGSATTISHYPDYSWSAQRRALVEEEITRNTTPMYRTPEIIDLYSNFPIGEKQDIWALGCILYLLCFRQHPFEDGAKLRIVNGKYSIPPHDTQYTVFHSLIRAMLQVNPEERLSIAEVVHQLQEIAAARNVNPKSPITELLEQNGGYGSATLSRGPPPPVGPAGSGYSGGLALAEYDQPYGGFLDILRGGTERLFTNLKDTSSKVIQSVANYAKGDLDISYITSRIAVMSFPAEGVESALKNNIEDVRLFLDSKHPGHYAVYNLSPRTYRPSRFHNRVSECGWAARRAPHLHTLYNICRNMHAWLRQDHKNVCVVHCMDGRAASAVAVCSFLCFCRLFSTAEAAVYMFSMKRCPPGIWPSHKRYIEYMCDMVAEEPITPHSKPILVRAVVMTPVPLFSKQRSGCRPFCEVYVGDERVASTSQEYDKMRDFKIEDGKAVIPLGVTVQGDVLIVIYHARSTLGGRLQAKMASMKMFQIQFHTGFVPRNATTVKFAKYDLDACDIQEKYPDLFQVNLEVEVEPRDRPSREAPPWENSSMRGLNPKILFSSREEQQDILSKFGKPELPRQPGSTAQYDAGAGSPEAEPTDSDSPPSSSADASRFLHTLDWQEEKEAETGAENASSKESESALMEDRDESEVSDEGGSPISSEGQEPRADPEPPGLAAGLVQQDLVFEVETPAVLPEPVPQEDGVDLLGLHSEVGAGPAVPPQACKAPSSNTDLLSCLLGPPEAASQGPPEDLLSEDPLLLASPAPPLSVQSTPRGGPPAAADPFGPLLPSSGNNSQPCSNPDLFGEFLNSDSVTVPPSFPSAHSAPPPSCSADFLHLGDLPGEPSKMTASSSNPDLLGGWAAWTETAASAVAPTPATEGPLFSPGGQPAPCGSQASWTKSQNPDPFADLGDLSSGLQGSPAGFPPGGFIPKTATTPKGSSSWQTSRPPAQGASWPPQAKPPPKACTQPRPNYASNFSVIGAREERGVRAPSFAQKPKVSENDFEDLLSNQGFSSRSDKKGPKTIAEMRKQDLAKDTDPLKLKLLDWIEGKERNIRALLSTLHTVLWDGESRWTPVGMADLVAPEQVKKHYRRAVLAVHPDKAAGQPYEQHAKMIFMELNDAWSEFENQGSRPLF

[5] = molecular target: protein kinases (human kinome) (Homo sapiens, UniProt P51451); conditions: for logFC BLK: BLK (P51451), direction down; for logFC of BLK (P51451): down
[6] = GAK (O14976), direction down, experiment wp071

Chain of protein kinases (human kinome) (Homo sapiens, UniProt P51451) (P51451 whole entry): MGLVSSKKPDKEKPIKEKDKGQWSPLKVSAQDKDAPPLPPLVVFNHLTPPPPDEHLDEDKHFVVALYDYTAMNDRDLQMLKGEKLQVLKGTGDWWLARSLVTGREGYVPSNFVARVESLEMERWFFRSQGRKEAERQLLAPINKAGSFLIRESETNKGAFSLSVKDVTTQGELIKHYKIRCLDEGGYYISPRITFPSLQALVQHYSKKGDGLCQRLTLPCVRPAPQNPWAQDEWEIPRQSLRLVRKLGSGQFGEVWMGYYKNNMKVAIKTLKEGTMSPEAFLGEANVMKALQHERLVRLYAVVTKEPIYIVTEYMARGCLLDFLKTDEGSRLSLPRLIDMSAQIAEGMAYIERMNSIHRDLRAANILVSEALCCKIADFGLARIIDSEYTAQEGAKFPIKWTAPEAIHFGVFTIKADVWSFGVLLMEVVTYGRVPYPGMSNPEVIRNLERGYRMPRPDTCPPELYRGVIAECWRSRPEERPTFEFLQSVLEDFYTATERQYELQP
Chain of protein kinases (human kinome) (Homo sapiens, UniProt P53671) (P53671 whole entry): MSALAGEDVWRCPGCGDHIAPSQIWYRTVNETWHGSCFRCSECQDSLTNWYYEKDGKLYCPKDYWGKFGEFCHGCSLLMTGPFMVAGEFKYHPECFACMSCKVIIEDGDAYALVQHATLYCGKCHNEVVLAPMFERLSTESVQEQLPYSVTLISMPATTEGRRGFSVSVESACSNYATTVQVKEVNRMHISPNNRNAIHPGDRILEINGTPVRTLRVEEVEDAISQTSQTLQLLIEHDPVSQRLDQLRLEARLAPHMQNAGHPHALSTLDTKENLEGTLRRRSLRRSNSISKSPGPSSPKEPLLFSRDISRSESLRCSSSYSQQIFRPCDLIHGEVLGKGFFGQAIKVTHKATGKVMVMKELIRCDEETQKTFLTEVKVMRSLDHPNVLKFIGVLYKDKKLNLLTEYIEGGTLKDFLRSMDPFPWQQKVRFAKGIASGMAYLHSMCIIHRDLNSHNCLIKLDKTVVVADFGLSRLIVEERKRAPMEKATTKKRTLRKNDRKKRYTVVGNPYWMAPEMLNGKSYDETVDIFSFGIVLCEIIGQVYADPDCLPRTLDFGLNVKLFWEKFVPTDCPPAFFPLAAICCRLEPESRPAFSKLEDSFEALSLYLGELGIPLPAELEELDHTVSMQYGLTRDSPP
Chain of protein kinases (human kinome) (Homo sapiens, UniProt P11802) (P11802 whole entry): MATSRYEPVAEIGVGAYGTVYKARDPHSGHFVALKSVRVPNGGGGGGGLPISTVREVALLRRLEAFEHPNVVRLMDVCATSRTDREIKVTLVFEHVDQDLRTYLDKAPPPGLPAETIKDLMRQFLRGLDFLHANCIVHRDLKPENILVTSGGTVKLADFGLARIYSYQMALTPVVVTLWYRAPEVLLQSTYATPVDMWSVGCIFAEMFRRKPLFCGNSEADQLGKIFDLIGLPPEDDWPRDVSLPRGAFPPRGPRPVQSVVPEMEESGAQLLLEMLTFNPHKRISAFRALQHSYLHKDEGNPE

With `CC(=O)c1c(C)c2cnc(Nc3ccc(N4CCN(CCOCCOCCOCCNC(=O)COc5cccc6c5C(=O)N(C5CCC(=O)NC5=O)C6=O)CC4)cn3)nc2n(C2CCCC2)c1=O` (centres unmarked) [BSJ.03.123] the “logFC CDK4 (P11802)” value ([1]; experiment wp084) was −0.9496 and the “logFC FASTKD2 (Q9NYY8)” value ([2]; Experiment wp084) was −0.51.
With `CN(C)C(=O)c1cc2cnc(Nc3ccc(N4CCN(CCCCNC(=O)COc5cccc6c5C(=O)N(C5CCC(=O)NC5=O)C6=O)CC4)cn3)nc2n1C1CCCC1` (centres unmarked) [BSJ.04.132] the “logFC CDK4 (P11802)” value ([1]; experiment wp084) was −0.9046 and the “logFC FASTKD2 (Q9NYY8)” value ([2]; Experiment wp084) was −0.5107.
With `CC(C)(C)c1nc(-c2cccc(NS(=O)(=O)c3c(F)cccc3F)c2F)c(-c2ccnc(NCCOCCNC(=O)CCOCCOCCNc3cccc4c3C(=O)N(C3CCC(=O)NC3=O)C4=O)n2)s1` (centres unmarked) [DD.03.106] the “logFC CDK4 (P11802)” value ([1]; experiment wp047) was −0.9277, the “logFC CDK4 (P11802)” value ([1]; experiment wp137) was −0.8885 and the “logFC CDK4 (P11802)” value ([1]; experiment wp147, 1 uM) was −0.6961. For the same compound, the “logFC CDK4 (P11802)” value ([1]; experiment wp147, 2 uM) was −0.9835, the “logFC CDK4 (P11802)” value ([1]; experiment wp147, 4 uM) was −0.726 and the “logFC LIMK2” value ([3]; experiment wp137) was −1.026. The “logFC of LIMK2” value ([3]; experiment wp137) was −1.026, the “logFC FASTKD2 (Q9NYY8)” value ([2]; Experiment wp147, 2 uM) was −0.3392 and the “logFC FASTKD2 (Q9NYY8)” value ([2]; Experiment wp147, 4 uM) was −0.9073.
For `CC(C)(C)c1nc(-c2cccc(NS(=O)(=O)c3c(F)cccc3F)c2F)c(-c2ccnc(NCCOCCNC(=O)CCOCCOCCNc3cccc4c3CN(C3CCC(=O)NC3=O)C4=O)n2)s1` (centres unmarked) [DD.03.107], the “logFC FASTKD2 (Q9NYY8)” value ([2]; Experiment wp147, 1 uM) was −0.7236, the “logFC FASTKD2 (Q9NYY8)” value ([2]; Experiment wp147, 2 uM) was −0.6784 and the “logFC FASTKD2 (Q9NYY8)” value ([2]; Experiment wp147, 4 uM) was −1.273.
With `O=C(COc1cccc2c1C(=O)N(C1CCC(=O)NC1=O)C2=O)NCCCCCCCC(=O)NC1(c2ccc(-c3nc4ccn5c(=O)[nH]nc5c4cc3-c3ccccc3)cc2)CCC1` (centres unmarked) [INY.01.140.1] the “logFC FASTKD2 (Q9NYY8)” value ([2]; Experiment wp081) was −0.4053.
With `C[C@@H]1C[C@@H](O)c2ncnc(N3CCN(C(=O)[C@H](CNCCCCCCCCCCc4cccc5c4C(=O)N(C4CCC(=O)NC4=O)C5=O)c4ccc(Cl)cc4)CC3)c21` (some centres unmarked) [INY.03.041.01] the “logFC CDK4 (P11802)” value ([1]; experiment wp118) was −0.4019 and the “logFC FASTKD2 (Q9NYY8)” value ([2]; Experiment wp118) was −0.4539.
With `Cc1cnc(Nc2ccc(N3CCN(CCOCCOCCNC(=O)COc4cccc5c4C(=O)N(C4CCC(=O)NC4=O)C5=O)CC3)cc2)nc1Nc1cccc(S(=O)(=O)NC(C)(C)C)c1` (centres unmarked) [JWG.118] the “logFC of GAK (O14976)” value ([4]; Experiment wp071, down) was −1.972, the “logFC GAK” value [4, 6] was −1.972 and the “logFC FASTKD2 (Q9NYY8)” value ([2]; Experiment wp071) was −0.4341.
For `Cc1ccc(C(=O)Nc2ccc(CN3CCN(CCCOCCOCCOCCNC(=O)COc4cccc5c4C(=O)N(C4CCC(=O)NC4=O)C5=O)CC3)c(C(F)(F)F)c2)cc1C#Cc1cnc2cccnn12` (centres unmarked) [SB1.G.187], the “logFC of GAK (O14976)” value ([4]; Experiment wp056, down) was −1.543, the “logFC of GAK (O14976)” value ([4]; Experiment wp103, down) was −1.478 and the “logFC of GAK (O14976)” value ([4]; Experiment wp105, down) was −1.088. For the same compound, the “logFC of GAK (O14976)” value ([4]; Experiment wp107, down) was −1.768, the “logFC of GAK (O14976)” value ([4]; Experiment wp114, down) was −0.3578 and the “logFC GAK” value ([4]; GAK (O14976), direction down, experiment wp056) was −1.543. The “logFC GAK” value ([4]; GAK (O14976), direction down, experiment wp103) was −1.478, the “logFC GAK” value ([4]; GAK (O14976), direction down, experiment wp105) was −1.088 and the “logFC GAK” value ([4]; GAK (O14976), direction down, experiment wp107) was −1.768. For the same compound, the “logFC GAK” value ([4]; GAK (O14976), direction down, experiment wp114) was −0.3578, the “logFC GAK” value ([4]; GAK (O14976), experiment wp172, down) was −1.007 and the “logFC GAK” value ([4]; GAK, accession O14976, experiment wp172, direction of change down) was −1.007. For the same compound, the “logFC BLK” value ([5]; experiment wp103) was −2.098, the “logFC BLK” value ([5]; experiment wp107) was −1.916 and the “logFC of BLK” value ([5]; BLK P51451, experiment wp056) was −2.021. The “logFC of BLK (P51451)” value ([5]; Experiment wp056) was −2.021, the “logFC of BLK (P51451)” value ([5]; Experiment wp103) was −2.098 and the “logFC of BLK (P51451)” value ([5]; Experiment wp107) was −1.916. For the same compound, the “logFC FASTKD2 (Q9NYY8)” value ([2]; Experiment wp056) was −0.3881.
With `Cn1c(=O)c(-c2c(Cl)cccc2Cl)cc2cnc(Nc3ccc(OCCNC(=O)CCCCCCNC(=O)COc4cccc5c4C(=O)N(C4CCC(=O)NC4=O)C5=O)cc3)nc21` (centres unmarked) [SB1.G.192.1] the “logFC of GAK (O14976)” value ([4]; Experiment wp071, down) was −1.765, the “logFC of GAK (O14976)” value ([4]; Experiment wp081, down) was −1.409 and the “logFC of GAK (O14976)” value ([4]; Experiment wp131, down) was −1.475. For the same compound, the “logFC GAK” value [4, 6] was −1.765, the “logFC GAK” value ([4]; GAK (O14976), direction down, experiment wp081) was −1.409 and the “logFC GAK” value ([4]; GAK (O14976), direction down, experiment wp131) was −1.475. The “logFC BLK” value ([5]; experiment wp071) was −2.399, the “logFC BLK” value ([5]; experiment wp081) was −2.013 and the “logFC BLK” value ([5]; experiment wp131) was −2.465. The “logFC of BLK (P51451)” value ([5]; Experiment wp071) was −2.399, the “logFC of BLK (P51451)” value ([5]; Experiment wp081) was −2.013 and the “logFC of BLK (P51451)” value ([5]; Experiment wp131) was −2.465. The “logFC LIMK2” value ([3]; experiment wp081) was −0.371, the “logFC LIMK2” value ([3]; experiment wp131) was −0.5544 and the “logFC of LIMK2” value ([3]; experiment wp081) was −0.371. For the same compound, the “logFC of LIMK2” value ([3]; experiment wp131) was −0.5544 and the “logFC FASTKD2 (Q9NYY8)” value ([2]; Experiment wp081) was −0.3577.
`C=CCn1c(=O)c2cnc(Nc3ccc(N4CCN(CCCNc5cccc6c5C(=O)N(C5CCC(=O)NC5=O)C6=O)CC4)cc3)nc2n1-c1cccc(C(C)(C)O)n1` (centres unmarked) [ZNL.02.096] was tested, and the “logFC FASTKD2 (Q9NYY8)” value ([2]; Experiment wp118) was −0.4605.
